These results are taken from patent US20150344820A1, “COMPOSITIONS AND METHODS FOR BIOFILM TREATMENT” (The Procter & Gamble Company, priority 2014, published 2015).

Series [1] is described as follows: Dynamic surface tension at 51 ms bubble lifetime (bubble pressure tensiometer). As to conditions: for Surface tension reduction at dilute concentrations of KOH: KOH <1.5-2.0 M; for Surface tension reduction at dilute concentrations of KOH / Surface tension change as the KOH concentration is increased: 51 ms (FIG. 3); for Surface Tension @ 51 ms: no surfactant. The format is physicochemical. The procedure:
The dynamic surface tension of a liquid may be determined by using a tensiometer. The tensiometer may measure the dynamic surface tension of the liquid according to the bubble pressure method. The bubble pressure method includes injecting a gas, such as air, into a liquid that is to be analyzed. The gas enters the liquid through a capillary that is immersed within the liquid. The difference in pressure between the gas and the liquid is recorded at several gas flow rates. The difference in pressure for each flow rate that is required to form a bubble is proportional to the surface tension of the liquid by the Young-Laplace equation, as reproduced below: […]
where Δp is the pressure differential between the pressure inside the gas bubble and the pressure outside the gas bubble within the liquid in Newtons per square meter (N/m^2); d is the diameter of the capillary in meters (m); and σ is the surface tension of the liquid in Newtons per meter (N/m). The dynamic surface tension of the liquid is calculated for each gas flow rate using the Young-Laplace equation for each flow rate. The bubble lifetime is equal to the time elapsed between the formation of the each bubble and is recorded for each flow rate. The calculated dynamic surface tension values are plotted versus the bubble lifetime.
The method of measuring the dynamic surface tension of a liquid may generally include the steps of: (1) calibrating the tensiometer; (2) cleaning the capillary of the tensiometer; and (3) measuring the dynamic surface tension and bubble lifetime of the liquid with the tensiometer. The method of measuring the dynamic surface tension of a liquid with a tensiometer may, for example, generally follow American Society for Testing and Materials standard ASTM D3825-09.
A SITA science line t60 tensiometer, available from SITA Messetechnik GmbH (Dresden, Germany), may be used to measure the dynamic surface tension of a liquid, such as an electrolyte solution. The t60 tensiometer may be calibrated according to SITA Messetechnik instructions with the tensiometer in Calibration Mode. See SITA science line t60 Manual, p. 4, Section 12.1. The calibration is completed by placing the tip of the capillary tube of the tensiometer into about 25 mL of deionized (DI) water that is held within a glass vessel, such as a 50 mL beaker. The tip of the capillary tube should extend into the solution to the manufacturer's recommended depth that is signaled by a mark on the temperature probe of the tensiometer. The temperature of the DI water should be between about 20° C. and about 30° C.
The t60 tensiometer may then be cleaned according to SITA Messetechnik instructions with the tensiometer in Cleaning Mode. See Id., p. 20, Section 12.4. The capillary tube may first be rinsed with DI water. The cleaning is completed by placing the tip of the capillary tube of the tensiometer into about 25 mL of deionized (DI) water that is held within a glass vessel, such as a 50 mL beaker. The tip of the capillary tube should extend into the solution to the manufacturer's recommended depth that is signaled by a mark on the temperature probe of the tensiometer. The temperature of the DI water should be between about 20° C. and about 30° C. Air is rapidly bubbled through the capillary tube of the tensiometer for about two (2) minutes.
The t60 tensiometer may then be used to obtain dynamic surface tension of the liquid solution to be analyzed. The data may be obtained according to SITA Messetechnik instructions with the tensiometer in Auto-Measurement Mode. See Id., p. 18, Section 12.3. The auto-measurement is completed by placing the tip of the capillary tube of the tensiometer into about 25 mL of the liquid solution that is held within a glass vessel, such as a 50 mL beaker. The tip of the capillary tube should extend into the solution to the manufacturer's recommended depth that is signaled by a mark on the temperature probe of the tensiometer. […]

For series [2] the following is noted: KOH solutions greater than 5M.
Description: Three different N,N′-dimethylamine oxide surfactants from the same homologous series (i.e., same chemical structure except for tail length) were used to make aqueous alkali surfactant compositions having 2500 ppm surfactant and various concentrations of KOH, as shown by Tables 4, 5, and 6 below.

The structures appear in SMILES notation.

For the compound `CCCCB(O)O` [Butyl Boronic Acid], the “SFT (dynamic surface tension at 51 ms)” value in series [1] (1.5% surfactant, [KOH] 0) is given as 62.3 mN/m; in series [1] (1.5% surfactant, [KOH] 0.5) it was 71.8 mN/m; in series [1] (1.5% surfactant, [KOH] 0.75) it was 73 mN/m; in series [1] (1.5% surfactant, [KOH] 2), 84.6 mN/m; in series [1] (1.5% surfactant, [KOH] 4) it was 73.5 mN/m; in series [1] (1.5% surfactant, [KOH] 6.6), 53.8 mN/m. Also, in series [1] (1.5% surfactant, [KOH] 8.7), the “SFT (dynamic surface tension at 51 ms)” value stood at 43.6 mN/m.
As for `CCCCCCCCCCCCCC[N+](C)(C)[O-]` [Tetradecyl-N,N′-Dimethylamine Oxide, reference compound], the “SFT (dynamic surface tension at 51 ms)” value was 43.1 mN/m in series [1] (2500 ppm surfactant, KOH 0 M); 49.9 mN/m in series [1] (2500 ppm surfactant, KOH 1 M); 80.6 mN/m in series [1] (2500 ppm surfactant, KOH 5 M). Further, the “Surface tension reduction at dilute concentrations of KOH” value (“Surface tension reduction” below) in series [1] (2500 ppm surfactant) was “do provide some surface tension reduction”. The “Surface tension change as the KOH concentration is increased” value in series [1] (2500 ppm surfactant) was “the surface tension increases”. Further, the “Solubility in KOH solutions” value in series [2] is reported as “not soluble”.
Take `[K+].[OH-]` [KOH, Potassium hydroxide]: the “Surface Tension @ 51 ms” value in series [1] (aqueous KOH 0.5 M) was 72.6 mN/m; in series [1] (aqueous KOH 1.0 M), 73.6 mN/m; in series [1] (aqueous KOH 2.0 M) it was 73 mN/m; in series [1] (aqueous KOH 3.0 M), 76 mN/m; in series [1] (aqueous KOH 5.0 M) it was 79.8 mN/m; in series [1] (aqueous KOH 8.7 M), 86.9 mN/m.
For the compound `CCCCCCCCCCCC[N+](C)(C)[O-]` [Dodecyl-N,N′-Dimethylamine Oxide, reference compound], the “SFT (dynamic surface tension at 51 ms)” value in series [1] (2500 ppm surfactant, KOH 0 M) was 37.7 mN/m; in series [1] (2500 ppm surfactant, KOH 1 M), 37.6 mN/m; in series [1] (2500 ppm surfactant, KOH 3 M) it was 65.4 mN/m; in series [1] (2500 ppm surfactant, KOH 5 M), 78.5 mN/m. Also, the “Surface tension reduction” value in series [1] (2500 ppm surfactant) was “do provide some surface tension reduction”. For the same compound, in series [1] (2500 ppm surfactant), the “Surface tension change as the KOH concentration is increased” value is given as “the surface tension increases”. Further, the “Solubility in KOH solutions” value in series [2] is on record as “not soluble”.
Consider `CCCCCCCC[N+](C)(C)[O-]` [Octyl-N,N′-Dimethylamine Oxide], for which the “SFT (dynamic surface tension at 51 ms)” value in series [1] (2500 ppm surfactant, KOH 0 M) is reported as 59.8 mN/m; in series [1] (2500 ppm surfactant, KOH 0.18 M) it was 56.5 mN/m; in series [1] (2500 ppm surfactant, KOH 0.36 M), 57 mN/m; in series [1] (2500 ppm surfactant, KOH 0.53 M) it was 56.3 mN/m; in series [1] (2500 ppm surfactant, KOH 1.78 M), 50.6 mN/m; in series [1] (2500 ppm surfactant, KOH 2.67 M), 44.4 mN/m. In addition, the “SFT (dynamic surface tension at 51 ms)” value in series [1] (2500 ppm surfactant, KOH 3.56 M) turned out to be 38.2 mN/m; in series [1] (2500 ppm surfactant, KOH 4.46 M) it was 34.5 mN/m; in series [1] (2500 ppm surfactant, KOH 5.35 M), 32.9 mN/m; in series [1] (2500 ppm surfactant, KOH 5.53 M), 30.7 mN/m; in series [1] (2500 ppm surfactant, KOH 6.24 M), 32.1 mN/m; in series [1] (2500 ppm surfactant, KOH 6.59 M), 32.1 mN/m. Further, the “Surface tension reduction” value in series [1] (2500 ppm surfactant) is reported as “does not provide or provides little surface tension reduction”. Also, the “Surface tension change as the KOH concentration is increased” value in series [1] (2500 ppm surfactant) is reported as “provides significant surface tension reduction”. Besides, the “Solubility in KOH solutions” value in series [2] is on record as “no such limit”.
